Experimental data taken from patent publication US4060524A, “6-Acylamido-2,2-dimethyl-3-(pyrimidin-4,6-dione-2-yl)penams” (Pfizer Inc., priority 1976, dated 1977).
In brackets after ≈: the same amount, converted by molar mass.

How the values were obtained:
Assay in all cases: in vitro MIC, two-fold serial dilution in brain-heart infusion medium
Assay type in all cases: cell-based
[1] = tested on: Pasteurella multocida 59A001
Method: (§1) The in vitro activity of the herein-described compounds renders them useful for topical application in the form of ointments, creams and the like, or for sterilization purposes, e.g., sickroom utensils. For topical application, the dosage level is on the order of from about 10 to 200 mg./kg./day.
(§2) The in vitro (MIC) values for 6-(phenylacetamido)-2,2-dimethyl-3-(pyrimidin-4,6-dione-2-yl)penam against several organisms is presented below: […]

[2] = tested on: Staphylococcus aureus 01A099
Method: as §1, §2

[3] = tested on: Staphylococcus aureus 01AA005
Method: as §1, §2

[4] = tested on: Streptococcus pyogenes 02C203
Method: as §1, §2

`CC1(C)S[C@@H]2[C@H](NC(=O)Cc3ccccc3)C(=O)N2[C@H]1C1=NC(=O)CC(=O)N1` [6-Phenylacetamido-2,2-dimethyl-3-(pyrimidin-4,6-dione-2yl)penam] showed an MIC [1] of 50 µg/mL (≈ 125 µM), an MIC [2] of 50 µg/mL (≈ 125 µM) and an MIC [3] of 50 µg/mL (≈ 125 µM). It also gave an MIC [4] of 3.12 µg/mL (≈ 7.79 µM).
